In ChEMBL document CHEMBL5050859, “Gpx4 inhibitors, pharmaceutical compositions thereof, and their use for treating gpx4-mediated diseases” (2021):

system: Huh-7; assay: Antiproliferative activity against human Huh-7 cells after 24 hrs by Cell Titer Glo assay; format: functional, cell-based; conditions: Huh-7, 24 h

SMILES	EC50 [nM]
O=C(NCCc1ccccc1)C(c1ccc([N+](=O)[O-])cc1)N(Cc1ccccc1)C(=O)CCl (stereo not given)	2000
C#CC(=O)N(c1cccc(Cl)c1)C1(C(=O)NCC(=O)NCc2ccccc2O)CCOCC1	100
CC#CC(=O)N(c1ccc2c(cnn2C)c1)C1(C(=O)NCc2ccccc2)CCCC(C(=O)OC)C1 (stereo not given)	> 10000
C#CC(=O)N(c1cccc(Cl)c1)C(C(=O)NCC1CC1)c1ccccc1 (stereo not given)	≤ 100
C#CC(=O)N(c1ccc(NS(C)(=O)=O)cc1)C(C(=O)NC(C)(C)C)c1cccc(N)c1 (stereo not given)	> 10000
Cn1ncc2cc(N(C(=O)CCl)C3(C(=O)NCCc4ccccc4)CCOCC3)ccc21	500
CC(C)(C)NC(=O)C(c1ccc([N+](=O)[O-])cc1)N(C(=O)CCl)c1ccc(Cl)cc1 (stereo not given)	2000
C#CC(=O)N(c1ccc2[nH]ncc2c1)C1(C(=O)NCc2ccccc2)CCOCC1	100
C#CC(=O)N(c1cccc(Cl)c1)C1(C(=O)NCc2ccccc2)CCC(F)(F)CC1	≤ 100
C#CC(=O)N(c1cccc(Cl)c1)C1(C(=O)NCC(=O)NCc2ccccc2Cl)CCOCC1	100
O=C(CCl)N(c1ccc2c(c1)OCO2)C1(C(=O)NCc2ccccc2)CCOCC1	2000
C#CC(=O)N(c1ccc(N)cc1)C(C(=O)NC(C)(C)C)c1cccc(N)c1 (stereo not given)	2000
C#CC(=O)N(c1ccc(NS(C)(=O)=O)cc1)C(C(=O)NC(C)(C)C)c1ccc(N)cc1 (stereo not given)	> 10000
C#CC(=O)N(CCc1ccccc1)C1(C(=O)NCc2ccccc2)CCCC(C(=O)OC)C1 (stereo not given)	100
C#CC(=O)N(c1ccc(Cl)cc1)C(C(=O)NC(C)(C)C)c1ccc(N)cc1 (stereo not given)	100
C#CC(=O)N(c1cccc2c1CCC2=O)C(C(=O)NCc1ccccc1)c1ccccc1 (stereo not given)	≤ 100
C#CC(=O)N(c1cccc(Cl)c1)C(C(=O)NC(C)(C)C)c1cccc(N)c1 (stereo not given)	100
C=CC(=O)N(CCc1ccccc1)C1(C(=O)NCc2ccccc2)CCOCC1	> 10000
C#CC(=O)N(c1ccc(NC(C)=O)cc1)C(C(=O)NC(C)(C)C)c1cccc(N)c1 (stereo not given)	2000

SMILES	EC50 [nM]
C#CC(=O)N(c1ccc2c(c1)ncn2C)C1(C(=O)NCc2ccccc2)CCOCC1	500
Cn1ncc2cc(N(C(=O)C(F)F)C3(C(=O)NCc4ccccc4)CCOCC3)ccc21	> 10000
C#CC(=O)N(c1cccc(Cl)c1)C(C(=O)NCC1CCOCC1)c1ccccc1 (stereo not given)	≤ 100
C#CC(=O)N(c1cccc(Cl)c1)C(C(=O)NCC1COC1)c1ccccc1 (stereo not given)	≤ 100
C#CC(=O)N(c1ccc(Cl)cc1)C(C(=O)NC(C)(C)C)c1cccc(N)c1 (stereo not given)	≤ 100
C#CC(=O)N(c1cccc(Cl)c1)C1(C(=O)NCc2ccccc2)CCCC(O)C1 (stereo not given)	2000
C#CC(=O)N(c1ccc2c(cnn2C)c1)C1(C(=O)NCc2ccccc2)CCCC(C(=O)OC)C1 (stereo not given)	≤ 100
C#CC(=O)N(c1cccc(OC)c1)C(C(=O)NC(C)(C)C)c1ccc(N)cc1 (stereo not given)	100
C#CC(=O)N(c1ccc(NC(C)=O)cc1)C(C(=O)NC(C)(C)C)c1ccc(N)cc1 (stereo not given)	2000
C#CC(=O)N(c1cccc(Cl)c1)C1(C(=O)NCc2ccccc2)CCCC(=O)C1 (stereo not given)	≤ 100
C#CC(=O)N(c1cccc(Cl)c1)C1(C(=O)NCC(=O)N2CCCC(CO)C2)CCOCC1 (stereo not given)	2000
C#CC(=O)N(c1cccc(Cl)c1)C1(C(=O)NCC(=O)OCC)CCOCC1	500
C#CC(=O)N(c1cccc(Cl)c1)[C@]1(C(=O)NCc2ccccc2)CC[C@H](O)CC1	100
C#CC(=O)N(c1cccc(Cl)c1)C1(C(=O)NCC(=O)NCc2ccccc2C#N)CCOCC1	100
C#CC(=O)N(c1ccc2ncn(C)c2c1)C1(C(=O)NCc2ccccc2)CCOCC1	500
C#CC(=O)N(c1ccc2c(c1)OCO2)C1(C(=O)NCc2ccccc2)CCOCC1	100
C#CC(=O)N(c1cccc(Cl)c1)C1(C(=O)NCC(=O)NCCO)CCOCC1	2000
O=C(C#CCO)N(c1cc(Cl)ccc1Cl)C1(C(=O)NCc2ccccc2)CCOCC1	> 10000
C#CC(=O)N(Cc1cccc(O)c1)C1(C(=O)NCc2ccccc2)CCCC(C(=O)OC)C1 (stereo not given)	100

Further lines, results first:

EC50 [nM]	SMILES
2000	O=C(NCCc1ccccc1)C(c1ccc([N+](=O)[O-])cc1)N(Cc1cccs1)C(=O)CCl (stereo not given)
100	C#CC(=O)N(c1cccc2c1OCO2)C(C(=O)NCc1ccccc1)c1ccccc1 (stereo not given)
100	C#CC(=O)N(c1cccc(Cl)c1)C(C(=O)NCc1ccccc1)C1CC1 (stereo not given)
≤ 100	C#CC(=O)N(c1ccc2nsnc2c1)C(C(=O)NCc1ccccc1)c1ccccc1 (stereo not given)
≤ 100	C#CC(=O)N(c1ccc(C(=O)OC)cc1)C(C(=O)NCc1ccccc1)c1cccc(N)c1 (stereo not given)
100	C#CC(=O)N(c1cccc(OC)c1)C(C(=O)NCc1ccccc1)c1cccc(N)c1 (stereo not given)
≤ 100	C#CC(=O)N(c1cccc(C(=O)OC)c1)C(C(=O)NCc1ccccc1)c1cccs1 (stereo not given)
≤ 100	C#CC(=O)N(c1cccc(Cl)c1)C(C(=O)NCc1ccccc1)c1cccc(N)c1 (stereo not given)
500	C#CC(=O)N(Cc1ccccc1)C(C(=O)NCc1ccccc1)c1cccc(N)c1 (stereo not given)
≤ 100	C#CC(=O)N(c1ccc2c(c1)C(=O)OC2)C(C(=O)NCc1ccccc1)c1ccccc1 (stereo not given)
100	C#CC(=O)N(c1cccc(Cl)c1F)C(C(=O)NCc1ccccc1)c1ccccc1 (stereo not given)
2000	C#CC(=O)N(c1ccc(NS(C)(=O)=O)cc1)C(C(=O)NCc1ccccc1)c1ccc(N)cc1 (stereo not given)
500	C#CC(=O)N(c1cccc(Cl)c1)C(C(=O)NCc1ccccc1)C1CCOCC1 (stereo not given)
≤ 100	C#CC(=O)N(c1ccc2c(c1)OCO2)C(C(=O)NCc1ccccc1)c1ccccc1 (stereo not given)
100	C#CC(=O)N(c1cccc(F)c1)C(C(=O)NCc1ccccc1)c1cccc(N)c1 (stereo not given)
100	COc1cccc(N(C(=O)CCl)C(C(=O)NCCc2ccccc2)c2ccc([N+](=O)[O-])cc2)c1 (stereo not given)

EC50 [nM]	SMILES
≤ 100	C#CC(=O)N(c1cccc(Cl)c1)C(C(=O)NCc1ccccc1)c1ccc(N)cc1 (stereo not given)
100	C#CC(=O)N(c1ccc2ncsc2c1)C(C(=O)NCc1ccccc1)c1ccccc1 (stereo not given)
2000	C#CC(=O)N(c1cccc(CO)c1)C(C(=O)NCc1ccccc1)c1ccc(N)cc1 (stereo not given)
2000	C#CC(=O)N(c1cccc(NS(C)(=O)=O)c1)C(C(=O)NCc1ccccc1)c1cccc(N)c1 (stereo not given)
100	C#CC(=O)N(c1cccc(S(C)(=O)=O)c1)C(C(=O)NCc1ccccc1)c1ccccc1 (stereo not given)
≤ 100	C#CC(=O)N(c1ccc(OC)c(Cl)c1)C(C(=O)NC(C)(C)C)c1ccc(N)cc1 (stereo not given)
≤ 100	C#CC(=O)N(c1cccc2nsnc12)C(C(=O)NCc1ccccc1)c1ccccc1 (stereo not given)
≤ 100	COc1ccc(N(C(=O)CCl)C2(C(=O)NCCc3ccccc3)CCOCC2)cc1Cl
≤ 100	COc1ccc(N(C(=O)CCl)C2(C(=O)NCc3ccccc3)CCC(F)(F)CC2)cc1Cl
> 10000	C#CC(=O)N(c1ccc(S(N)(=O)=O)cc1)C(C(=O)NCc1ccccc1)c1cccc(N)c1 (stereo not given)
≤ 100	C#CC(=O)N(c1cccc(Cl)c1)C(C(=O)NCc1ccccc1C#N)c1ccccc1 (stereo not given)
≤ 100	C#CC(=O)N(c1ccc(Cl)c(Cl)c1)C(C(=O)NCc1ccccc1)c1ccc(N)cc1 (stereo not given)
≤ 100	C#CC(=O)N(c1cccc(C(=O)OC)c1)C(C(=O)NCc1ccccc1)c1ccc(N)cc1 (stereo not given)
500	COc1ccc(N(C(=O)CCl)C(C(=O)NCc2ccccc2)c2cccs2)cc1Cl (stereo not given)
500	C#CC(=O)N(c1cccc(N)c1)C(C(=O)NCc1ccccc1)c1ccc(N)cc1 (stereo not given)
≤ 100	C#CC(=O)N(c1cccc(Cl)c1)C(C(=O)NCc1ccccc1)c1cccs1 (stereo not given)
